# Reference: US20240190871A1, “KRASG12D INHIBITOR, PREPARATION METHOD THEREFOR AND APPLICATION THEREOF” (YA THERAPEUTICS INC, priority 2021, published 2024)
# Tested on: ATCC CRL-1739 (KRASG^12D mutant) cells
# Assay: Tumor cell proliferation inhibition experiment (Cell Titer-Glo, 72 hours)
# Type: cell-based
# Conditions: 72 hours incubation, 10% fetal bovine serum, ATP content
# Experimental: The ATCC CRL-1739 (KRASG^12D mutant) cells were digested, centrifuged and resuspended, and the cell density was measured with a Scepter automatic cell counter. The cells were diluted to a solution containing 44,000 cells per milliliter, and the density-adjusted cell solution was 90 per well. Microliters were added to a 96-well culture plate. The 96-well plate was placed in a 37° C., 5% CO2 incubator. After the cells were cultured for 24 hours, different concentrations of the compounds to be tested were added. The cells were incubated with the compounds for 72 hours in the presence of 10% fetal bovine serum. Glo Luminescent Cell Viability Assay Kit (see manufacturer's instructions for details) was used to measure ATP content to assess cell growth inhibition. Briefly, 30 μl of Cell Titer-Glo reagent was added to each well, and the plate was shaken for 10 minutes to induce cell lysis. FluoroskanAscentFL (Thermo) assay records the […], and the maximum signal value is obtained from cells treated with DMSO for 72 hours. The minimum signal value was obtained from the medium alone (the number of cells was zero), and the % inhibition rate=(the maximum signal value compound signal value)/(the maximum signal value−the minimum signal value×100%, and the data were processed using Graphpadprism 5 software. By sigmoid Dose-response curve fitting to calculate IC50 value. “A” means IC50≤50 nM; “B” means 50<IC50≤500 nM; “C” means 500<IC50≤2000 nM; “D” means 2000<IC50
row,IC50,SMILES
1,> 2 µM,"C[C@@H]1CNCCN1c1nc(OC[C@@H]2CCCN2C)nc2nc(-c3ccccc3Cl)c(F)cc12 [Compound 32, 7-(2-chlorophenyl)-6-fluoro-4-((R)-2-methylpiperazin-1-yl)-2-(((S)-1-methylpyrrolidin-2-yl)methoxy)pyrido [2,3-d]pyrimidine]"
2,0.5 to 2 µM,"C[C@@H]1CNCCN1c1nc(OC[C@@H]2CCCN2C)nc2nc(-c3cccc4ncccc34)c(F)cc12 [Compound 44, 6-fluoro-4-((R)-2-methylpiperazin-1-y1)-2-(((S)-1-methylpyrrolidin-2-yl)methoxy)-7-(quinolin-5-yl)pyrido[2,3-d]pyrimidine]"
3,> 2 µM,"C[C@@H]1CNCCN1c1nc(OC[C@@H]2CCCN2C)nc2nc(-c3cccc4c3cnn4C)c(F)cc12 [Compound 42, 6-fluoro-7-(1-methyl-1H-indazol-4-yl)-4-((R)-2-methylpiperazin-1-yl)-2-(((S)-1-methylpyrrolidin-2-yl)methoxy)pyrido [2,3-d]pyrimidine]"
4,> 2 µM,"C[C@@H]1CNCCN1c1nc(OC[C@@H]2CCCN2C)nc2nc(-c3ccc4ccccc4c3)c(F)cc12 [Compound 37, 6-fluoro-4-((R)-2-methylpiperazin-1-y1)-2-(((S)-1-methylpyrrolidin-2-yl)methoxy)-7-(naphthalen-2-yl)pyrido[2,3-d]pyrimidine]"
5,> 2 µM,"C[C@@H]1CNCCN1c1nc(OC[C@@H]2CCCN2C)nc2nc(-c3cccc4ccsc34)c(F)cc12 [Compound 38, 7-(benzo[b]thiophen-7-yl)-6-fluoro-4-((R)-2-methylpiperazin-1-y1)-2-(((S)-1-methylpyrrolidin-2-yl)methoxy)pyrido [2,3-d]pyrimidine]"
6,> 2 µM,"C[C@@H]1CNCCN1c1nc(OCCN(C)C)nc2nc(-c3c(O)cccc3F)c(F)cc12 [Compound 2, 2-(2-(2-(dimethylamino)ethoxy)-6-fluoro-4-((R)-2-methylpiperazin-1-yl)pyrido[2,3-d]pyrimidin-7-yl)-3-fluorophenol]"
7,> 2 µM,"C[C@@H]1CNCCN1c1nc(OC[C@@H]2CCCN2C)nc2nc(-c3cccc4c3ccn4C)c(F)cc12 [Compound 41, 6-fluoro-7-(1-methyl-1H-indol-4-yl)-4-((R)-2-methylpiperazin-1-yl)-2-(((S)-1-methylpyrrolidin-2-yl)methoxy)pyrido [2,3-d]pyrimidine]"

# More lines, now with the values behind:
row,SMILES,IC50
1,"CN1CCC[C@H]1COc1nc(N2C3CNCC2C3)c2cc(F)c(-c3cc(O)cc4cccc(F)c34)nc2n1 [Compound 48, 4-(4-(3,6-diazabicyclo[3.1.1]heptan-6-yl)-6-fluoro-2-(((S)-1-methylpyrrolidin-2-yl)methoxy)pyrido [2,3-d]pyrimidin-7-yl)-5-fluoronaphthalen-2-ol]",≤ 0.05 µM
2,"C[C@@H]1CNCCN1c1nc(OC[C@@H]2CCCN2C)nc2nc(-c3cccc4ccoc34)c(F)cc12 [Compound 40, 7-(benzofuran-7-yl)-6-fluoro-4-((R)-2-methylpiperazin-1-yl)-2-(((S)-1-methylpyrrolidin-2-yl)methoxy)pyrido [2,3-d]pyrimidine]",> 2 µM
3,"Oc1cc(-c2nc3nc(OC[C@@H]4C[C@@H](F)CN4C4CC4)nc(N4C5CNCC4C5)c3cc2F)c2c(F)cccc2c1 [Compound 50, 4-(4-(3,6-diazabicyclo[3.1.1]heptan-6-yl)-2-(((2S,4R)-1-cyclopropyl-4-fluoropyrrolidin-2-yl)methoxy)-6-fluoropyrido[2,3-d]pyrimidin-7-yl)-5-fluoronaphthalen-2-ol]",0.5 to 2 µM
4,"C[C@@H]1CNCCN1c1nc(OC[C@@H]2CCCN2C)nc2nc(-c3cccc4ccccc34)c(F)cc12 [Compound 35, 6-fluoro-4-((R)-2-methylpiperazin-1-yl)-2-(((S)-1-methylpyrrolidin-2-yl)methoxy)-7-(naphthalen-1-yl)pyrido[2,3-d]pyrimidine]",> 2 µM
5,"Oc1cc(-c2nc3nc(OC[C@@]45CCCN4C[C@H](F)C5)nc(N4C[C@H]5CC[C@@H](C4)N5)c3cc2F)c2c(Cl)cccc2c1 [Compound 55, 4-(4-((1R,5S)-3,8-diazabicyclo [3.2.1]octan-3-yl)-6-fluoro-2-(((2R,7aS)-2-fluorohexahydro-1H-pyrrolizin-7a-yl)methoxy)pyrido[2,3-d]pyrimidin-7-yl)-5-chloronaphthalen-2-ol]",≤ 0.05 µM
6,"C[C@@H]1CNCCN1c1nc(OC[C@@H]2CCCN2C)nc2nc(-c3cccc4ccncc34)c(F)cc12 [Compound 43, 6-fluoro-7-(isoquinolin-8-y1)-4-((R)-2-methylpiperazin-1-y1)-2-(((S)-1-methylpyrrolidin-2-yl)methoxy)pyrido [2,3-d]pyrimidine]",0.5 to 2 µM
7,"Oc1cc(-c2nc3nc(OCC4(CN5CC[C@@H](F)C5)CC4)nc(N4C5CNCC4C5)c3cc2F)c2c(F)cccc2c1 [Compound 52, 4-(4-(3,6-diazabicyclo[3.1.1]heptan-6-yl)-6-fluoro-2-((1-(((R)-3-fluoropyrrolidin-1-yl)methyl)cyclopropyl)methoxy)pyrido[2,3-d]pyrimidin-7-yl)-5-fluoronaphthalen-2-ol]",0.05 to 0.5 µM
8,"Oc1cc(-c2nc3nc(OC[C@@]45CCCN4C[C@H](F)C5)nc(N4C5CNCC4C5)c3cc2F)c2c(Cl)cccc2c1 [Compound 53, 4-(4-(3,6-diazabicyclo[3.1.1]heptan-6-yl)-6-fluoro-2-(((2R,7aS)-2-fluorohexahydro-1H-pyrrolizin-7a-yl)methoxy)pyrido[2,3-d]pyrimidin-7-yl)-5-chloronaphthalen-2-ol]",≤ 0.05 µM
9,"Oc1cc(-c2nc3nc(OC[C@@]45CCCN4CC(F)C5)nc(N4CC5CCC(C4)N5)c3cc2F)c2c(F)cccc2c1 (stereo partly drawn) [Compound 56, 4-(4-((1R,5S)-3,8-diazabicyclo [3.2.1]octan-3-yl)-6-fluoro-2-(((2R,7aS)-2-fluorohexahydro-1H-pyrrolizin-7a-yl)methoxy)pyrido[2,3-d]pyrimidin-7-y1)-5-fluoronaphthalen-2-ol]",≤ 0.05 µM
10,"CCc1c(F)ccc2cc(O)cc(-c3nc4nc(OC[C@@]56CCCN5C[C@H](F)C6)nc(N5C[C@H]6CC[C@@H](C5)N6)c4cc3F)c12 [Compound 59, 4-(4-((1R,5S)-3,8-diazabicyclo[3.2.1]octan-3-yl)-6-fluoro-2-(((2R,7aS)-2-fluorotetrahydro-1H-pyrrolizin-7a(5H)-yl)methoxy)pyrido[2,3-d]pyrimidin-7-yl)-5-ethyl-6-fluoronaphthalen-2-ol]",≤ 0.05 µM
11,"Oc1cc(-c2nc3nc(OCC4(CN5CCCC5)CC4)nc(N4C5CNCC4C5)c3cc2F)c2c(F)cccc2c1 [Compound 51, 4-(4-(3,6-diazabicyclo[3.1.1]heptan-6-yl)-6-fluoro-2-((1-(pyrrolidin-1-ylmethyl)cyclopropyl)methoxy)pyrido[2,3-d]pyrimidin-7-yl)-5-fluoronaphthalen-2-ol]",0.05 to 0.5 µM
12,"C[C@@H]1CNCCN1c1nc(OC[C@@H]2CCCN2C)nc2nc(-c3cccc4cccnc34)c(F)cc12 [Compound 39, 6-fluoro-4-((R)-2-methylpiperazin-1-yl)-2-(((S)-1-methylpyrrolidin-2-yl)methoxy)-7-(quinolin-8-yl)pyrido[2,3-d]pyrimidine]",> 2 µM
13,"CN1C[C@H](F)C[C@H]1COc1nc(N2C3CNCC2C3)c2cc(F)c(-c3cc(O)cc4cccc(F)c34)nc2n1 [Compound 49, 4-(4-(3,6-diazabicyclo[3.1.1]heptan-6-yl)-6-fluoro-2-(((2S,4R)-4-fluoro-1-methylpyrrolidin-2-yl)methoxy)pyrido [2,3-d]pyrimidin-7-y1)-5-fluoronaphthalen-2-ol]",0.5 to 2 µM
